Laboratory results reported in paper PMC5423501 (The Oncologist, 2017).
“Also recorded” adds a separate entry of the source. Where two headings read alike, the source gives them in different places.

How the values were obtained:
[1] = Steady-state plasma pharmacokinetics, cycle 1 day 8; type: in vivo, human
patients with HCC = conditions: phase III trial in HCC; cited from earlier work
IL‐12p40 = assay: Serum factors, V-Plex assay, baseline vs end of cycle 1; type: in vivo, human; conditions: baseline to end of cycle 1; p = .002
[2] = system: patients with HIV and HCC; conditions: 27 patients with HIV and HCC, 400 mg sorafenib twice daily, retrospective; cited from earlier work
bFGF = assay: Serum factors, V-Plex assay, baseline vs end of cycle 1; type: in vivo, human; conditions: baseline to end of cycle 1; p = .018
Kaposi sarcoma = assay: KS response assessment; type: in vivo, human
[3] = system: patients with Kaposi sarcoma; conditions: in vivo
[4] = system: patients with HIV and cancer; conditions: cited from earlier work

With `CNC(=O)c1cc(Oc2ccc(NC(=O)Nc3ccc(Cl)c(C(F)(F)F)c3)cc2)cc[n+]1[O-]` [Sorafenib N-Oxide, Sorafenib N‐oxide] as the molecule, how does the “decrease of AUCTAU of sorafenib-N-oxide in patients receiving ritonavir” value ([1]; trend, p = .08) read?
Its value is 3.8 fold.

For `CNC(=O)c1cc(Oc2ccc(NC(=O)Nc3ccc(Cl)c(C(F)(F)F)c3)cc2)ccn1` [Sorafenib], which “diarrhea, grade 3–4 AE” value (patients with HCC) is on record?
The value was 8%.

And the “hypertension, grade 3–4 AE” value (patients with HCC)?
The value was 2%.

What about the “palmar-plantar erythrodysesthesia syndrome, grade 3–4 AE” value (patients with HCC) of the same molecule?
Its value is 8%.

What about the “change in serum IL-12p40” value (IL‐12p40) of the same molecule?
Its value is “statistically significant decrease”.

And the “diarrhea, grade 3–4 AE” value [2]?
Its value is 15%.

And the “hypertension, grade 3–4 AE” value [2]?
Its value is 11%.

What about the “palmar-plantar erythrodysesthesia syndrome, grade 3–4 AE” value [2] of the same molecule?
The value was 15%.

And the “change in serum bFGF” value (bFGF)?
Its value is “potential trend towards decreased bFGF”.

What about the “ORR in patients evaluable for response” value (Kaposi sarcoma; 2/7, 95% CI 4%–71%) of the same molecule?
The value was 29%.

What about the “ORR in all patients” value (Kaposi sarcoma; 2/10, 95% CI 3%–56%) of the same molecule?
Its value is 20%.

What about the “Median duration of SD” value (Kaposi sarcoma; range 1–5, 21-day cycles) of the same molecule?
The value was 4 cycles.

And the “patients with grade 3 toxicities that did not meet DLT criteria” value [3]?
Its value is “five”.

And the “CMAX and AUC0-12h of sorafenib compared with literature” value ([1]; 200 mg dose at steady state)?
The value was “within reported ranges”.

What about the “effect of ritonavir on steady-state AUCTAU (exposure) of sorafenib” value ([1]; cohort on ritonavir vs not on ritonavir) of the same molecule?
The value was “not significantly affected by ritonavir; also recorded: only modestly affected”.

Which results are given for `CCN(CC)CCNC(=O)c1c(C)[nH]c(/C=C2\C(=O)Nc3ccc(F)cc32)c1C` [sunitinib]?
tolerability ([4]; HIV patients not taking ritonavir): tolerated standard dosing; tolerability ([4]; patients receiving ritonavir): higher toxicities at lower doses; effect of ritonavir on sunitinib and active metabolite ([4]; patients with HIV and cancer): decreases in the sunitinib active metabolite but not the parent drug
